# Molecular target: T1, streptavidin (SAv) (Streptomyces avidinii, UniProt P22629)
# T1 construct: commercial lyophilized streptavidin (Sigma Aldrich), homotetramer, immobilised as monolayer on biotinylated OEG
# Assay: AFM single molecule force spectroscopy, Bell-Evans fit
# Format: binding
# Conditions: labelled compound (biotin tethered to AFM tip by PEG linker and thiol-gold bond); koff extrapolated to zero force; 10 mM HEPES pH 7.4, 150 mM NaCl, ambient temperature
# Description: AFM single molecule force spectroscopy, Bell-Evans fit on streptavidin (SAv)
# T1 sequence (P22629 25-183): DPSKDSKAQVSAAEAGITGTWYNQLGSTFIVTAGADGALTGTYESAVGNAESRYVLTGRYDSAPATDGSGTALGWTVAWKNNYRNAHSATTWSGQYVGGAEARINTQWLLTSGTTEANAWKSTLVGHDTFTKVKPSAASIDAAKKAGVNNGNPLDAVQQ
substance,measurement,value
biotin,koff,1.40 ± 0.59 s⁻¹
